Assay results reported in ChEMBL document CHEMBL1121861, “Mammalian metabolism of phencyclidine” (J Med Chem, 1981).

How the values were obtained:
[1] = Half-life determined in the urine of dog; assay type: ADME, organism-based, Canis lupus familiaris
Canis familiaris = organism: Canis familiaris; assay: Compound was evaluated for the mean locomotor activity ([…]) by the difference in the counts between postinjection and preinjection activities.; assay type: functional, Canis lupus familiaris
[2] = Half-life determined in the urine of monkey; assay type: ADME; conditions: simiiformes

Compound	half-life [1]	Activity (Canis familiaris)	half-life [2]
Cl.c1ccc(C2(N3CCCCC3)CCCCC2)cc1 [PHENCYCLIDINE HYDROCHLORIDE]	2.86 h	3062	2.36 h
Cl.O=C(O)CCCCNC1(c2ccccc2)CCCCC1.c1ccc(C2(N3CCCCC3)CCCCC2)cc1	–	2478	–
COC(=O)CCCCNC1(c2ccccc2)CCCCC1.Cl.c1ccc(C2(N3CCCCC3)CCCCC2)cc1	–	2388	–
COC(=O)CCCCNC1(c2ccccc2)CCCCC1.Cl	–	-1418	–
Cl.O=C(O)CCCCNC1(c2ccccc2)CCCCC1	–	-1063	–
